We go through four molecules from patent US6723897B2, “Methods for controlling gibberellin levels” (Monsanto Technology, LLC, priority 1998, dated 2004).

“Also recorded” adds a separate entry of the source.

Data set [1] concerns constitutively GA-deficient transgenic dwarf soybean line 719. Description: Experiment II second greenhouse test, seed imbibition, GA-deficient soybean. The class given is in vivo, Glycine max. To be noted: seeds imbibed 6 hours. Here is the method: (The compounds are tested in Experiment I at only one concentration, i.e., 0.25 mg/ml). Test tubes contained […] of ethanol solution per tube. Final volumes are made up to 30 ml with deionized water. After shaking, the treatment solutions (15 ml each) are transferred to each of two 50 ml test tubes. […] Twenty seeds are used in each treatment. Dry seed, ethanol/water-imbibed seed (1% ethanol in water, v/v), and water-imbibed seeds are included as controls. Seeds are imbibed for 6 hours in the test solutions, then planted in bread pans containing Metromix 350 (The Scotts Company, Marysville, Ohio), and covered with 0.5″ Metro-mix. Covered pans are transferred to the greenhouse and subirrigated. Illumination is at a light intensity of 300-400 μmolm^−2s^−1 photosynthetic photon flux; 16 hours light/8 hours dark. Subsequent waterings are also through sub-irrigation until the test is terminated three weeks later. Observations included the number of dwarf, intermediate, and tall plants; plant height; uniformity of rescue; and any visual effects. Digital photographs are also taken.

For data set [2] the test system is unchanged. In words: Experiment IV field test, seed imbibition, compacted soil. Type of data set: in vivo, Glycine max. To be noted: for No. of Dwarfs Not Rescued / Total Plants: imbibed 8 hours; for Total Plants: 25 seeds planted; for % of Dwarfs Rescued: relative to 8.5 true dwarfs per plot; for field result on line 719 in words: over the rates tested (0.0025-0.25 mg/ml). From the text: The objective of these experiments is to determine if there is a greenhouse to field translation of results with selected GA compounds with respect to rescue of constitutively GA-deficient transgenic dwarf soybeans and elongation of wild-type plants. […] For the first field trial, the solutions previously used for the second greenhouse test, and stored in the freezer, are employed. […] For comparison, freshly prepared solutions of GA3 are also employed. The compounds tested included kaurenoic acid, fresh GA3, stored GA3, GA3-3-acetate, GA5, GA9, and GA12. […] Seeds of line […] are imbibed for 8 hours. Untreated dry seeds served as controls. After imbibition, the remaining solutions are returned to the freezer. Seeds are kept on the benchtop at room temperature overnight. […] Untreated dry seeds served as controls. Following planting line 719, all plots (both […] and line 719) are compacted by driving an all-terrain vehicle over the planted rows twice, and watered. All GA solutions are discarded. The results are shown in Table 15 for constitutively GA-deficient transgenic dwarf line 719 only as insufficient […] germinated to make any useful observations. Observations included number of plants that germinated, number rescued, and visual observations. Two points should be noted concerning the data in Table 15. […] Next, the number of dwarfs not rescued in any treatment is subtracted from 8.5.

Data set [3] relates to wild-type soybean line A3237. In words: Experiment I greenhouse test, seed imbibition, wild-type soybean. To be noted: 0.25 mg/ml; seeds imbibed 5 hours. Here is the method:
Compounds are first prepared as 25 mg/ml solutions in ethanol as described above, and then diluted into 40 ml of water to prepare the final 0.25 mg/ml treatment solutions. Visual observations on solubilities (milky, clear, etc.) of the treatment solutions are noted. The treatment solutions are divided into two 20 ml portions, each in 50 ml plastic centrifuge tubes. In addition to treating seeds with solutions containing the test compounds, untreated seeds and seeds imbibed in ethanol-water solution (300 μl ethanol in 30 mls of water) are also included in this experiment as controls. […]
After imbibition, seeds are removed from the test tubes, placed on wax paper to dry, and planted in bread pans containing farm soil amended with fertilizer at 20 seeds/pan. Seeds are covered with 0.5″ of vermiculite. Pans are transferred to the greenhouse, which had day/night temperatures of 86/68° F. (30/20° C.), and subirrigated. Illumination is at a light intensity of 300-400 μmolm^−2s^−1 photosynthetic photon flux; 16 hours light/8 hours dark. Subsequent waterings are also through sub-irrigation until the test is terminated three weeks later. Observations included the number of dwarf, intermediate, and tall plants; plant height; uniformity of rescue; and any visual effects.

Data set [4] relates to constitutively GA-deficient transgenic dwarf soybean line 719. In words: Fifth and sixth field tests, emergence after seed imbibition. Type of data set: in vivo, Glycine max. To be noted: for Total Emerged: 50 seeds imbibed 5 hours. Here is the method:
Fresh stock solutions of compounds are prepared for this test. Kaurenoic acid is tested at 0.025 and 0.25 mg/ml; GA3 is tested at 0.025, 0.25, and 0.5 mg/ml; GA3-3-acetate at 0.025 and 0.25 mg/ml; GA5 at 0.025 and 0.25 mg/ml; GA9 at 0.025 and 0.04 mg/ml; and GA12 at 0.025 and 0.25 mg/ml. Stock solutions are prepared in ethanol in 50 ml plastic centrifuge tubes; deionized water is then added to make up the volumes to 30 ml. The final solutions contained 300 μl ethanol in 30 mls. […] Seeds are imbibed for 6 hours, and planted 1″ deep in a single row in moist to wet soil. They are then covered with dry soil, and the row is compacted twice with an all-terrain vehicle. Untreated dry seeds served as controls. The GA solutions are placed on dry ice until reuse the next day.
The next day, additional seeds of constitutive transgenic dwarf line 719 (50 seeds/treatment) are imbibed in the remaining treatment solutions for 5 hours, and planted in moist soil. The rows are compacted twice.

Regarding `C=C1C[C@]23C[C@@]1(O)CC[C@H]2[C@@]12C=C[C@H](O)[C@@](C)(C(=O)O1)[C@H]2[C@@H]3C(=O)O` [GA3, gibberellic acid], the “Significant Visual Observations on Line 719” value in data set [1] (0.0025 mg/ml), in data set [1] (0.025 mg/ml) and in data set [1] (0.25 mg/ml) was “Excessive elongation” throughout. For the same molecule, the “No. of Dwarfs Not Rescued” value in data set [2] (fresh solution 0.0025 mg/ml) was determined as 0; in data set [2] (fresh solution 0.025 mg/ml) it was 1; in data set [2] (fresh solution 0.25 mg/ml), 0; in data set [2] (stored solution 0.0025 mg/ml), 0; in data set [2] (stored solution 0.025 mg/ml), 0; in data set [2] (stored solution 0.25 mg/ml), 0. In addition, the “Total Plants” value in data set [2] (fresh solution 0.0025 mg/ml) was determined as 13; in data set [2] (fresh solution 0.025 mg/ml), 13; in data set [2] (fresh solution 0.25 mg/ml) it was 1; in data set [2] (stored solution 0.0025 mg/ml) it was 14; in data set [2] (stored solution 0.025 mg/ml), 9; in data set [2] (stored solution 0.25 mg/ml), 7. Moreover, the “% of Dwarfs Rescued” value stood at 100% in data set [2] (fresh solution 0.0025 mg/ml); 88.2% in data set [2] (fresh solution 0.025 mg/ml); 100% in data set [2] (fresh solution 0.25 mg/ml); 100% in data set [2] (stored solution 0.0025 mg/ml); 100% in data set [2] (stored solution 0.025 mg/ml); 100% in data set [2] (stored solution 0.25 mg/ml). The “field result on line 719 in words” value in data set [2] is “poor emergence at all rates”. The “Visual Observations on Transgenic Line 719” value in data set [2] (stored solution 0.025 mg/ml) and in data set [2] (stored solution 0.25 mg/ml) was “Extremely elongated plants” in each case. Moreover, the “Observation on Wild-Type Line A3237” value in data set [3] came to 3. Besides, the entries for the “Total Emerged” value in data set [4] (0.025 mg/ml), in data set [4] (0.25 mg/ml) and in data set [4] (0.5 mg/ml) were 15, 9 and 1, respectively.
For the molecule `C=C1C[C@]23C[C@@]1(O)CC[C@H]2[C@@]12C=C[C@H](OC(C)=O)[C@@](C)(C(=O)O1)[C@H]2[C@@H]3C(=O)O` [GA3-3-acetate], the “Significant Visual Observations on Line 719” value in data set [1] (0.0025 mg/ml) is “good rescue, with no overelongation”; in data set [1] (0.025 mg/ml), “Poor rescue”; in data set [1] (0.25 mg/ml), “Excessive elongation”. In addition, in data set [2], the “field result on line 719 in words” value is “excessive elongation, and no uniformity in plant height”. The “No. of Dwarfs Not Rescued” value in data set [2] (stored solution 0.0025 mg/ml), in data set [2] (stored solution 0.025 mg/ml) and in data set [2] (stored solution 0.25 mg/ml) was 0 in each case. Moreover, the entries for the “Total Plants” value in data set [2] (stored solution 0.0025 mg/ml), in data set [2] (stored solution 0.025 mg/ml) and in data set [2] (stored solution 0.25 mg/ml) were 21, 1 and 3, respectively. Further, the “% of Dwarfs Rescued” value in data set [2] (stored solution 0.0025 mg/ml), in data set [2] (stored solution 0.025 mg/ml) and in data set [2] (stored solution 0.25 mg/ml) was 100% each time. Besides, the “Visual Observations on Transgenic Line 719” value in data set [2] (stored solution 0.25 mg/ml) is “Extremely elongated plants”; in data set [4] (0.25 mg/ml), “Overelongation”. Further, the “Observation on Wild-Type Line A3237” value in data set [3] was determined as 3. Besides, the “Total Emerged” value in data set [4] (0.025 mg/ml) turned out to be 2; in data set [4] (0.25 mg/ml), 1.
With `C=C1C[C@]23C[C@@]1(O)CC[C@H]2[C@@]12CC=C[C@@](C)(C(=O)O1)[C@H]2[C@@H]3C(=O)O` [GA5], the “Significant Visual Observations on Line 719” value in data set [1] (0.0025 mg/ml) is “Good rescue of dwarfs”; in data set [1] (0.025 mg/ml), “good rescue, with no overelongation”; in data set [1] (0.25 mg/ml), “Excessive elongation”. For the same molecule, the “field result on line 719 in words” value in data set [2] is “slight to excessive elongation, and no uniformity in plant height”. Moreover, the “No. of Dwarfs Not Rescued” value in data set [2] (stored solution 0.0025 mg/ml) is 8; in data set [2] (stored solution 0.025 mg/ml), 0; in data set [2] (stored solution 0.25 mg/ml), 0. The “Total Plants” value turned out to be 25 in data set [2] (stored solution 0.0025 mg/ml), 20 in data set [2] (stored solution 0.025 mg/ml) and 7 in data set [2] (stored solution 0.25 mg/ml). The “% of Dwarfs Rescued” value stood at 5.9% in data set [2] (stored solution 0.0025 mg/ml), 100% in data set [2] (stored solution 0.025 mg/ml) and 100% in data set [2] (stored solution 0.25 mg/ml). For the same molecule, the “Visual Observations on Transgenic Line 719” value is given as “Extremely elongated plants” in data set [2] (stored solution 0.25 mg/ml) and “good emergence with good rescue” in data set [4] (0.025 mg/ml). In addition, the “Observation on Wild-Type Line A3237” value in data set [3] came to 4. Moreover, the figures for the “Total Emerged” value in data set [4] (0.025 mg/ml) and in data set [4] (0.25 mg/ml) were 21 and 3, respectively.
`C=C1C[C@]23C[C@H]1CC[C@H]2[C@@]12CCC[C@@](C)(C(=O)O1)[C@H]2[C@@H]3C(=O)O` [GA9]: the “Significant Visual Observations on Line 719” value in data set [1] (0.00125 mg/ml) was “Poor rescue”; in data set [1] (0.0125 mg/ml), “Good rescue of dwarfs”; in data set [1] (0.125 mg/ml), “good rescue, with no overelongation”. Moreover, the “field result on line 719 in words” value in data set [2] is “slight elongation, and no uniformity in height”. For the same molecule, the figures for the “No. of Dwarfs Not Rescued” value in data set [2] (stored solution 0.0025 mg/ml), in data set [2] (stored solution 0.025 mg/ml) and in data set [2] (stored solution 0.25 mg/ml) were 7, 0 and 0, respectively. Besides, the entries for the “Total Plants” value in data set [2] (stored solution 0.0025 mg/ml), in data set [2] (stored solution 0.025 mg/ml) and in data set [2] (stored solution 0.25 mg/ml) were 20, 22 and 17, respectively. For the same molecule, the “% of Dwarfs Rescued” value is on record as 17.6% in data set [2] (stored solution 0.0025 mg/ml), 100% in data set [2] (stored solution 0.025 mg/ml) and 100% in data set [2] (stored solution 0.25 mg/ml). Moreover, the results for the “Visual Observations on Transgenic Line 719” value in data set [2] (stored solution 0.25 mg/ml) and in data set [4] (0.025 mg/ml) were “Slightly elongated plants” and “good emergence with good rescue; also recorded: No dwarfs in plots”, respectively. Moreover, in data set [3], the “Observation on Wild-Type Line A3237” value is on record as 3. In addition, the “Total Emerged” value is given as 24 in data set [4] (0.025 mg/ml) and 11 in data set [4] (0.04 mg/ml).
